From patent US20210038628A1, “NANOPARTICLE COMPOSITIONS” (JANUARY THERAPEUTICS, INC., priority 2018, published 2021)
Where a name gives a salt, the structure may show the parent alone.

system: BxPC-3 (pancreatic adenocarcinoma) cell line; experiment: Cellular proliferation assay in BxPC-3 cells (Cell-Titer Glo); format: cell-based; conditions: Homo sapiens, 120 hours incubation, Cell-Titer Glo luminescence
Method: Compounds are tested for their ability to impair cancer cell proliferation and/or induce cell death. For cellular proliferation studies, cultured cells are treated with the test compound for 24-120 hours. After compound treatment, cell proliferation is assessed by using methods including, but not limited to, Cell-Titer-Glo® (Promega), Alamar Blue, LIVE/DEAD® (ThermoFisher), BrdU incorporation, and live-cell imaging. The cancer lines used include, but are not limited to BxPC-3 (pancreatic cancer). Gemcitabine Hydrochloride serves as a control for activity.
BxPC-3 (pancreatic adenocarcinoma) cell line was purchased from the American Type Culture Collection (Catalog #CRL-1687) and grown in RPMI-1640 medium (e.g. Corning #10-040-CV) with 10% Heat Inactivated Fetal Calf Serum at 37° C. and 5% CO2 (as recommended by the ATCC).
Cultures were grown in […] plates to 80% confluence, and cells were trypsinized to a single-cell suspension. Cells were then resuspended in growth medium to a density of […]. They were then plated into 96-well assay plates (Corning #3917) in a volume of 100 ul/well (2,500 cells/well). Cells were allowed to adhere to plates for 24 h at 37° C. and 5% CO2). Compounds were then added to the wells using an […] serial dilution scheme (over 9 dilutions, generally ranging from 30 μM-30 pM), and the cells were incubated for an additional 120 hours. After 120 h, 90 ul of Cell-Titer Glo reagent (Promega #G7572) was added, and the plates were read using a luminescence counter (e.g., BioTek Synergy HTX at 100 ms read time).

| SMILES | EC50 [nM] |
| --- | --- |
| CCCCCCCCCCCCCCCCCCC(=O)O[C@@H]1[C@@H](COP2(=O)OCc3ccccc3O2)O[C@@H](n2ccc(N)nc2=O)C1(F)F (stereo partly drawn) [Compound 16, (2R,3R,5R)-5-(4-amino-2-oxopyrimidin-1(2H)-yl)-4,4-difluoro-2-(((2-oxido-4H-benzo[d][1,3,2]dioxaphosphinin-2-yl)oxy)methyl)tetrahydrofuran-3-yl Nonadecanoate] | < 1 |
| CCCCCCCCCCCCC(=O)O[C@@H]1[C@@H](COP(=O)(OCOC(=O)CC(C)(C)C)OCOC(=O)CC(C)(C)C)O[C@@H](n2ccc(N)nc2=O)C1(F)F [Compound 17] | 1 to 10 |
| CCCCCCCCCCCCCCC(=O)OC1[C@@H](COP(=O)(OCOC(=O)CC(C)(C)C)OCOC(=O)CC(C)(C)C)O[C@@H](n2ccc(N)nc2=O)C1(F)F (stereo partly shown) [Compound 27] | < 1 |
| Nc1ccn([C@@H]2O[C@H](CO)[C@@H](O)C2(F)F)c(=O)n1 [Gemcitabine Hydrochloride, reference compound] | 1 to 10 |
